According to US4795715A, “Aminoalkoxy or carboxyalkoxy derivatives of propranolol for immunoassay applications” (Drug Science Foundation, priority 1986, dated 1989):

System: propranolol antiserum (produced in Example 1)
Test: Specificity (cross-reactivity) of the antiserum of Example 1: inhibition of 3H propranolol-antibody complex formation (radioimmunoassay)
Assay type: binding, rabbit
Details: for relative efficiency of the compound with respect to propranolol as an inhibitor (percentage): propranolol = 100 %; for ID50 (amount of compound giving 50% inhibition of 3H-propranolol binding to antiserum): dl-[4-3H]-propranolol tracer
Description: Five New Zealand White rabbits were injected with an emulsion of the antigen as follows. For each animal, a solution was prepared consisting of 1 mg. of antigen dissolved in 0.8 ml. of 0.01M phosphate buffered saline at pH 7.4 and emulsified with 1.0 ml. of complete Freund's adjuvant. One hundred microliters of this emulsion was injected subcutaneously into each of the hind toe pads with the remainder divided between the hindquarters intramuscularly. One week later the animals were boosted with the same formulation, and additional boosts were administered at montly intervals thereafter. […] Bleedings were taken from the central ear artery seven to ten days after each boost, and weekly once the titre was sufficient. Blood was allowed to clot overnight at 4° C. and centrifuged to separate antiserum.
Radioactive dl-[4-^3 H]-propranolol with a specific activity of 21 C./mMol was obtained from the Radiochemical Center Amersham. This tritiated propranolol was diluted in the assay buffer just prior to use to obtain about 15000 cpm in 100 microliters of solution; 100 microliters of this preparation was added to each tube, including two background controls. The propranolol antiserum was diluted to 1:2000 in the buffer and 100 microliters of this solution was added to each tube with the exception of the background controls. The tubes were then vortexed, incubated at 37° C. for one hour, and cooled in an ice bath for 10 minutes prior to the addition of dextran-coated charcoal suspension.
Each tube was treated with one ml. of cold dextran-coated charcoal suspension and vortexed briefly, then incubated at 0° C. for 7-10 minutes prior to centrifugation at 5000 RPM in a refrigerated centriguge for 25 minutes. The supernatants were decanted into suitably labelled scintillation vials, dissolved in 10 ml. of counting cocktail and counted for 1-5 minutes. Counting cocktail was prepared by dissolving 40 g. of Omnifluor™ (purchased from New England Nuclear) and 2 liters of S-A-S Solubilizer™ (purchased from Research Products International Corp.) in 10 liters of toluene.

CC(C)NCC(O)COc1cccc2ccccc12 (racemic) [Propranolol]
relative efficiency of the compound with respect to propranolol as an inhibitor (percentage): 100%

CC(C)NCC(O)COc1ccc(O)c2ccccc12 (stereo not drawn) [4-Hydroxy-Propranolol]
cross reactivity with the antiserum (in words): significant cross reactivity | relative efficiency of the compound with respect to propranolol as an inhibitor (percentage): 30%

CC(C)NCC(O)COc1cccc2c(O)cccc12 (stereo not drawn) [5-Hydroxy-Propranolol]
cross reactivity with the antiserum (in words): cross-react | relative efficiency of the compound with respect to propranolol as an inhibitor (percentage): 90%

NCC(O)COc1cccc2ccccc12 (stereo not drawn) [Ndesisopropyl Propranolol Amino]
ID50 (amount of compound giving 50% inhibition of 3H-propranolol binding to antiserum): 780 ng | relative efficiency of the compound with respect to propranolol as an inhibitor (percentage): 0.06%

CC(C)NCC(COc1cccc2ccccc12)OC1OC(C(=O)O)C(O)C(O)C1O (stereo not drawn) [Propranolol Glucuromide]
ID50 (amount of compound giving 50% inhibition of 3H-propranolol binding to antiserum): 700 ng | relative efficiency of the compound with respect to propranolol as an inhibitor (percentage): 0.07%
